# From publication PMC3062711 (Biochimica et biophysica acta, 2010)
# pIC50: −log10 of the molar value.
# Biological target: human TRPA1 channel (hTRPA1) (Homo sapiens, UniProt O75762)
# Assay: inside-out patch clamp recording, hTRPA1 expressed in HEK293T cells
# Assay type: cell-based
# human TRPA1 channel (hTRPA1), sequence (O75762 whole entry): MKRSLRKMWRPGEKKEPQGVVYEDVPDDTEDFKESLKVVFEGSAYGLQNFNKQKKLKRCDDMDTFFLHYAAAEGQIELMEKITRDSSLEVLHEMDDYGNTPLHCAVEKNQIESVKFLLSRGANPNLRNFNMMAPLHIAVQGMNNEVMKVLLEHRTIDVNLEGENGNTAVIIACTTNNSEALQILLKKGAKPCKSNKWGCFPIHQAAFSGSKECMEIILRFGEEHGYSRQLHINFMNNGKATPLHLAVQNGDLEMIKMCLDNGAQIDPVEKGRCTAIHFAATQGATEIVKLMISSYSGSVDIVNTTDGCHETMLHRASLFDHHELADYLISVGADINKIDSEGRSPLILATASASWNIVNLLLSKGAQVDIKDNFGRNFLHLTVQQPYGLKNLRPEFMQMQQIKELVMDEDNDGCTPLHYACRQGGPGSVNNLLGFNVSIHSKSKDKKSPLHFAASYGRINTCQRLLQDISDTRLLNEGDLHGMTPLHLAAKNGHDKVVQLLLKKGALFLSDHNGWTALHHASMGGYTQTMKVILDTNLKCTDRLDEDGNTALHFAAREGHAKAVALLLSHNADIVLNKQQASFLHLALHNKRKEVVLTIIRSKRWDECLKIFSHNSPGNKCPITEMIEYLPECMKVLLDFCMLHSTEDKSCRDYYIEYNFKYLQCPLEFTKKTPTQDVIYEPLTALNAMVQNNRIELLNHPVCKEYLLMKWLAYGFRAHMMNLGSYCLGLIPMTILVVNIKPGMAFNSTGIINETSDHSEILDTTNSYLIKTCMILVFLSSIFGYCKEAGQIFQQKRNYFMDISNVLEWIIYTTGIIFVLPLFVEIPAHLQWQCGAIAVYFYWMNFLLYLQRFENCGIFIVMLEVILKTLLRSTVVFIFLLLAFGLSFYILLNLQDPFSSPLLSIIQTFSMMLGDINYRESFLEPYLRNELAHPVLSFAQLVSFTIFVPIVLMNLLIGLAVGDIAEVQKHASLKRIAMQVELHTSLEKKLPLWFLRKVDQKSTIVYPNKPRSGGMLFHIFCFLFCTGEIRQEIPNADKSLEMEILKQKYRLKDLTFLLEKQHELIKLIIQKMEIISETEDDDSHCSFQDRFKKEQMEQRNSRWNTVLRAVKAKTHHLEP
substance,measurement,value
Ruthenium red [RR],pIC50,~5.74
